Results taken from PMC5218480 (PLoS ONE, 2017).

Tested on: MV-4-11 cells
Experiment: Gene expression microarray analysis (Affymetrix PrimeView) and GSEA
Type: cell-based, human
Set-up: RFU PODN (11730768_x_at) / Fold change /veh PODN (11730768_x_at) / RFU LINC00158 (11744669_a_at) / Fold change /veh LINC00158 (11744669_a_at) / RFU DUSP10 (11751237_a_at) / Fold change /veh DUSP10 (11751237_a_at) / RFU ID3 (11757404_x_at) / Fold change /veh ID3 (11757404_x_at) / RFU PLEKHG5 (11737974_s_at) / Fold change /veh PLEKHG5 (11737974_s_at) / RFU LRRC4B (11730491_at) / Fold change /veh LRRC4B (11730491_at) / RFU GIMAP4 (11747438_a_at) / Fold change /veh GIMAP4 (11747438_a_at) / RFU KRT8 (11758183_x_at) / Fold change /veh KRT8 (11758183_x_at) / RFU CNN1 (11734310_a_at) / Fold change /veh CNN1 (11734310_a_at) / RFU VPS37D (11726825_at) / Fold change /veh VPS37D (11726825_at) / RFU C10orf10 (11716522_x_at) / Fold change /veh C10orf10 (11716522_x_at) / RFU KIR2DL2 /// KIR2DL4 /// KIR2DL5A /// KIR2DL5B /// KIR2DS1 /// KIR2DS2 /// KIR2DS3 /// KIR2DS4 /// KIR3DL3 /// KIR3DL3 /// KIR3DS1 (11738374_at) / Fold change /veh KIR2DL2 /// KIR2DL4 /// KIR2DL5A /// KIR2DL5B /// KIR2DS1 /// KIR2DS2 /// KIR2DS3 /// KIR2DS4 /// KIR3DL3 /// KIR3DL3 /// KIR3DS1 (11738374_at) / RFU C1QL1 (11718748_at) / Fold change /veh C1QL1 (11718748_at) / RFU TMPRSS4 (11747572_a_at) / Fold change /veh TMPRSS4 (11747572_a_at) / RFU HAMP (11756126_x_at) / Fold change /veh HAMP (11756126_x_at) / RFU RNFT2 (11725882_a_at) / Fold change /veh RNFT2 (11725882_a_at) / RFU NR4A2 (11747474_a_at) / Fold change /veh NR4A2 (11747474_a_at) / RFU ABCC12 (11746883_a_at) / Fold change /veh ABCC12 (11746883_a_at) / RFU TMEM136 (11760407_x_at) / Fold change /veh TMEM136 (11760407_x_at) / RFU CLDN22 /// WWC2 (11732394_at) / Fold change /veh CLDN22 /// WWC2 (11732394_at) / RFU HLA-DPB1 (11760878_x_at) / Fold change /veh HLA-DPB1 (11760878_x_at) / RFU SPINT1 (11716480_a_at) / Fold change /veh SPINT1 (11716480_a_at) / RFU GAP43 (11754022_s_at) / Fold change /veh GAP43 (11754022_s_at) / RFU A4GNT (11735810_at) / Fold change /veh A4GNT (11735810_at) / RFU PRB3 (11715151_x_at) / Fold change /veh PRB3 (11715151_x_at) / RFU TUBB4B (11761932_at) / Fold change /veh TUBB4B (11761932_at) / RFU CAPN14 (11732068_a_at) / Fold change /veh CAPN14 (11732068_a_at) / RFU TMCC2 (11721928_a_at) / Fold change /veh TMCC2 (11721928_a_at) / RFU IRGQ (11745062_a_at) / Fold change /veh IRGQ (11745062_a_at) / RFU FAM174B (11720279_a_at) / Fold change /veh FAM174B (11720279_a_at) / RFU TMPRSS4 (11748680_a_at) / Fold change /veh TMPRSS4 (11748680_a_at) / RFU FAM212B (11763350_a_at) / Fold change /veh FAM212B (11763350_a_at) / RFU PLEKHG5 (11743358_a_at) / Fold change /veh PLEKHG5 (11743358_a_at) / RFU ZSCAN30 (11745921_a_at) / Fold change /veh ZSCAN30 (11745921_a_at) / RFU CMKLR1 (11741424_a_at) / Fold change /veh CMKLR1 (11741424_a_at) / RFU LOC101060620 /// MAPK8IP1 (11723275_at) / Fold change /veh LOC101060620 /// MAPK8IP1 (11723275_at) / RFU SPTSSB (11747773_x_at) / Fold change /veh SPTSSB (11747773_x_at) / RFU PRSS12 (11739890_at) / Fold change /veh PRSS12 (11739890_at) / RFU BIN1 (11741810_x_at) / Fold change /veh BIN1 (11741810_x_at) / RFU WNT11 (11732464_a_at) / Fold change /veh WNT11 (11732464_a_at) / RFU C10orf10 (11716521_a_at) / Fold change /veh C10orf10 (11716521_a_at) / RFU C5orf56 (11738089_at) / Fold change /veh C5orf56 (11738089_at) / RFU CYB561 (11721691_x_at) / Fold change /veh CYB561 (11721691_x_at) / RFU ANKRD19P (11752326_a_at) / Fold change /veh ANKRD19P (11752326_a_at) / RFU OR2T12 /// OR2T33 /// OR2T8 (11738714_s_at) / Fold change /veh OR2T12 /// OR2T33 /// OR2T8 (11738714_s_at) / RFU VCAN (11748164_a_at) / Fold change /veh VCAN (11748164_a_at) / RFU JSRP1 (11732532_at) / Fold change /veh JSRP1 (11732532_at) / RFU KRTAP10-11 (11738290_x_at) / Fold change /veh KRTAP10-11 (11738290_x_at) / RFU MYO3A (11730013_a_at) / Fold change /veh MYO3A (11730013_a_at) / RFU EBF3 (11725865_a_at) / Fold change /veh EBF3 (11725865_a_at) / RFU CAMK2N1 (11719241_x_at) / Fold change /veh CAMK2N1 (11719241_x_at) / RFU C5orf56 (11738088_a_at) / Fold change /veh C5orf56 (11738088_a_at) / RFU OLFML3 (11715873_a_at) / Fold change /veh OLFML3 (11715873_a_at) / RFU LOC100653217 /// NTM (11731650_a_at) / Fold change /veh LOC100653217 /// NTM (11731650_a_at) / RFU MAPK11 (11762145_a_at) / Fold change /veh MAPK11 (11762145_a_at) / RFU FIZ1 (11724087_x_at) / Fold change /veh FIZ1 (11724087_x_at) / RFU OASL (11726364_x_at) / Fold change /veh OASL (11726364_x_at) / RFU SOX15 (11748057_x_at) / Fold change /veh SOX15 (11748057_x_at) / RFU CD79A (11719716_a_at) / Fold change /veh CD79A (11719716_a_at) / RFU HIST1H1D (11736915_at) / Fold change /veh HIST1H1D (11736915_at) / RFU CASKIN2 (11723855_a_at) / Fold change /veh CASKIN2 (11723855_a_at) / RFU LOC730098 (11760151_x_at) / Fold change /veh LOC730098 (11760151_x_at) / RFU OR4N2 (11742367_at) / Fold change /veh OR4N2 (11742367_at) / RFU PRRT2 (11749266_a_at) / Fold change /veh PRRT2 (11749266_a_at) / RFU SNX32 (11753110_a_at) / Fold change /veh SNX32 (11753110_a_at) / RFU CDHR5 (11726645_a_at) / Fold change /veh CDHR5 (11726645_a_at) / RFU RCAN1 (11760418_a_at) / Fold change /veh RCAN1 (11760418_a_at) / RFU FAM167A (11723789_a_at) / Fold change /veh FAM167A (11723789_a_at) / RFU FAM26E (11764081_at) / Fold change /veh FAM26E (11764081_at) / RFU ISYNA1 (11749810_s_at) / Fold change /veh ISYNA1 (11749810_s_at) / RFU ACY1 (11761880_at) / Fold change /veh ACY1 (11761880_at) / RFU 11764098_at / Fold change /veh 11764098_at / RFU SAMD14 (11745864_x_at) / Fold change /veh SAMD14 (11745864_x_at) / RFU NPB (11741838_a_at) / Fold change /veh NPB (11741838_a_at) / RFU TMPRSS6 (11731388_a_at) / Fold change /veh TMPRSS6 (11731388_a_at) / RFU KRTAP10-2 (11738614_at) / Fold change /veh KRTAP10-2 (11738614_at) / RFU ARHGAP8 /// PRR5-ARHGAP8 (11727945_x_at) / Fold change /veh ARHGAP8 /// PRR5-ARHGAP8 (11727945_x_at) / RFU KRTAP5-7 /// NADSYN1 (11734609_at) / Fold change /veh KRTAP5-7 /// NADSYN1 (11734609_at) / RFU RASL12 (11751679_a_at) / Fold change /veh RASL12 (11751679_a_at) / RFU CDKN2B (11736163_a_at) / Fold change /veh CDKN2B (11736163_a_at) / RFU PRF1 (11729649_at) / Fold change /veh PRF1 (11729649_at) / RFU, ZNF638 /// ZNF638-IT1 / Fold change vs veh, ZNF638 /// ZNF638-IT1 / RFU, PANK3 / Fold change vs veh, PANK3 / RFU, SH3YL1 / Fold change vs veh, SH3YL1 / RFU, ZEB2 / Fold change vs veh, ZEB2 / RFU, NRIP1 / Fold change vs veh, NRIP1 / RFU, PTTG1IP / Fold change vs veh, PTTG1IP / RFU, CAPN2 / Fold change vs veh, CAPN2 / RFU, MED14 / Fold change vs veh, MED14 / RFU, SNORA58 / Fold change vs veh, SNORA58 / RFU, C1orf63 / Fold change vs veh, C1orf63 / RFU, LRRFIP1 / Fold change vs veh, LRRFIP1 / RFU, NDUFAF7 / Fold change vs veh, NDUFAF7 / RFU, SLC12A2 / Fold change vs veh, SLC12A2 / RFU, IBTK / Fold change vs veh, IBTK / RFU, ESF1 / Fold change vs veh, ESF1 / Fold change vs veh, TMEM50B / RFU, TAOK1 / Fold change vs veh, TAOK1 / RFU, ACBD3 / Fold change vs veh, ACBD3 / RFU, TMA16 / Fold change vs veh, TMA16 / RFU, RWDD3 / Fold change vs veh, RWDD3 / RFU, BCAT1 / Fold change vs veh, BCAT1 / RFU, EDEM3 / Fold change vs veh, EDEM3 / RFU, TMEM33 / Fold change vs veh, TMEM33 / RFU, WDR75 / Fold change vs veh, WDR75 / RFU, AHCTF1 / Fold change vs veh, AHCTF1 / RFU, TFRC / Fold change vs veh, TFRC / RFU, ZDHHC17 / Fold change vs veh, ZDHHC17 / RFU, NOM1 / Fold change vs veh, NOM1 / RFU, ARL8B / Fold change vs veh, ARL8B / RFU, ZBTB11 / Fold change vs veh, ZBTB11 / RFU, TAMM41 / Fold change vs veh, TAMM41 / RFU, KIAA1704 /// LOC100996395 / Fold change vs veh, KIAA1704 /// LOC100996395 / RFU, ING1 / Fold change vs veh, ING1 / RFU, TRMT61B / Fold change vs veh, TRMT61B / RFU, FUBP3 / Fold change vs veh, FUBP3 / RFU, TP53 / Fold change vs veh, TP53 / RFU, TNKS2 / Fold change vs veh, TNKS2 / RFU, ZFP14 / Fold change vs veh, ZFP14 / RFU, ACTR2 / Fold change vs veh, ACTR2 / RFU, PPP3R1 / Fold change vs veh, PPP3R1 / RFU, PIK3R1 / Fold change vs veh, PIK3R1 / RFU, HNRNPA1 / Fold change vs veh, HNRNPA1 / RFU, RNF170 / Fold change vs veh, RNF170 / RFU, ZNF28 / Fold change vs veh, ZNF28 / RFU, RNGTT / Fold change vs veh, RNGTT / RFU, OGT / Fold change vs veh, OGT / RFU, BRD1 / Fold change vs veh, BRD1 / RFU, MARS / Fold change vs veh, MARS / RFU, ZNF655 / Fold change vs veh, ZNF655 / RFU, FAHD1 / Fold change vs veh, FAHD1 / RFU, BDP1 / Fold change vs veh, BDP1 / RFU, LRRCC1 / Fold change vs veh, LRRCC1 / RFU, ARID1A / Fold change vs veh, ARID1A / RFU, ZNF146 / Fold change vs veh, ZNF146 / RFU, ZNF330 / Fold change vs veh, ZNF330 / RFU, GPN3 / Fold change vs veh, GPN3 / RFU, C9orf123 / Fold change vs veh, C9orf123 / RFU, N4BP2L2 / Fold change vs veh, N4BP2L2 / RFU, ARFIP1 / Fold change vs veh, ARFIP1 / RFU, FAM179B / Fold change vs veh, FAM179B / RFU, BCL10 / Fold change vs veh, BCL10 / RFU, UHRF1BP1L / Fold change vs veh, UHRF1BP1L / RFU, BET1 / Fold change vs veh, BET1 / RFU, CNOT2 / Fold change vs veh, CNOT2 / RFU, ZNF268 / Fold change vs veh, ZNF268 / Fold change vs veh, ZNF507 / RFU, DGCR2 / Fold change vs veh, DGCR2 / RFU, WDSUB1 / Fold change vs veh, WDSUB1 / Fold change vs veh, HSP90B1 /// MIR3652 / RFU, ADSS / Fold change vs veh, ADSS / RFU, GK / Fold change vs veh, GK / RFU, ZNF148 / Fold change vs veh, ZNF148 / RFU, TAF9 / Fold change vs veh, TAF9 / RFU, SLC1A5 / Fold change vs veh, SLC1A5 / RFU, SLMO2 / Fold change vs veh, SLMO2 / RFU, ABCC4 / Fold change vs veh, ABCC4 / RFU, LOC101060439 /// RAP1B / Fold change vs veh, LOC101060439 /// RAP1B / RFU, RFX7 / Fold change vs veh, RFX7 / RFU, GTPBP10 / Fold change vs veh, GTPBP10 / RFU, CNEP1R1 / Fold change vs veh, CNEP1R1 / RFU, BIVM-ERCC5 /// ERCC5 / Fold change vs veh, BIVM-ERCC5 /// ERCC5 / RFU, ILF3 / Fold change vs veh, ILF3 / RFU 11762660_at / Fold change /veh 11762660_at / RFU VCAN (11757783_s_at) / Fold change /veh VCAN (11757783_s_at) / RFU DDX43 (11728927_at) / Fold change /veh DDX43 (11728927_at) / RFU KRT8 (11758188_x_at) / Fold change /veh KRT8 (11758188_x_at) / RFU NKD1 (11759106_at) / Fold change /veh NKD1 (11759106_at) / RFU SRD5A1 (11742802_a_at) / Fold change /veh SRD5A1 (11742802_a_at) / RFU TPSAB1 /// TPSB2 (11721975_s_at) / Fold change /veh TPSAB1 /// TPSB2 (11721975_s_at) / RFU GSTM3 (11746129_a_at) / Fold change /veh GSTM3 (11746129_a_at) / RFU IL23R (11737362_x_at) / Fold change /veh IL23R (11737362_x_at) / RFU TMEM51 (11727254_a_at) / Fold change /veh TMEM51 (11727254_a_at) / RFU PIWIL2 (11732686_x_at) / Fold change /veh PIWIL2 (11732686_x_at) / RFU ORM1 (11744905_x_at) / Fold change /veh ORM1 (11744905_x_at) / RFU CCDC152 (11743942_at) / Fold change /veh CCDC152 (11743942_at) / RFU ECM1 (11717891_a_at) / Fold change /veh ECM1 (11717891_a_at) / RFU IL23R (11748794_a_at) / Fold change /veh IL23R (11748794_a_at) / RFU TNFAIP8L3 (11732012_x_at) / Fold change /veh TNFAIP8L3 (11732012_x_at) / RFU MBOAT4 (11741988_at) / Fold change /veh MBOAT4 (11741988_at) / RFU 11764193_at / Fold change /veh 11764193_at / RFU TMEM53 (11763286_at) / Fold change /veh TMEM53 (11763286_at) / RFU MAGEB2 (11727129_at) / Fold change /veh MAGEB2 (11727129_at) / RFU TMEM200A (11744735_a_at) / Fold change /veh TMEM200A (11744735_a_at) / RFU CCDC152 (11751479_a_at) / Fold change /veh CCDC152 (11751479_a_at) / RFU FAM211A (11726209_a_at) / Fold change /veh FAM211A (11726209_a_at) / RFU RGS16 (11746705_a_at) / Fold change /veh RGS16 (11746705_a_at) / RFU VCAN (11755009_s_at) / Fold change /veh VCAN (11755009_s_at) / RFU RHOB (11743442_s_at) / Fold change /veh RHOB (11743442_s_at) / RFU RGS16 (11720943_a_at) / Fold change /veh RGS16 (11720943_a_at) / RFU RGS16 (11720944_at) / Fold change /veh RGS16 (11720944_at) / RFU, VPS4B / Fold change vs veh, VPS4B / RFU, CREB1 / Fold change vs veh, CREB1 / RFU, DNAJC13 / Fold change vs veh, DNAJC13 / RFU, GNAQ / Fold change vs veh, GNAQ / RFU, CDK5R1 / Fold change vs veh, CDK5R1 / RFU, ZRANB3 / Fold change vs veh, ZRANB3 / RFU, CUL4A / Fold change vs veh, CUL4A / RFU, CCNY / Fold change vs veh, CCNY / RFU, UFL1 / Fold change vs veh, UFL1 / RFU, COG3 / Fold change vs veh, COG3 / RFU, DIAPH2 / Fold change vs veh, DIAPH2 / RFU, SKA2 / Fold change vs veh, SKA2 / RFU, AFF3 / Fold change vs veh, AFF3 / RFU, LMF1 / Fold change vs veh, LMF1 / RFU, IPO11 / Fold change vs veh, IPO11 / RFU, DFFB / Fold change vs veh, DFFB / RFU, FOXP1 / Fold change vs veh, FOXP1 / RFU, CARD8 / Fold change vs veh, CARD8 / RFU, STRN3 / Fold change vs veh, STRN3 / RFU, ADK / Fold change vs veh, ADK / RFU, RASSF2 / Fold change vs veh, RASSF2 / RFU, WIPF1 / Fold change vs veh, WIPF1 / RFU, LARP1B / Fold change vs veh, LARP1B / RFU, RASA1 / Fold change vs veh, RASA1 / RFU, RB1 / Fold change vs veh, RB1 / RFU, PPFIA1 / Fold change vs veh, PPFIA1 / RFU, MAT2A / Fold change vs veh, MAT2A / RFU, CCT5 / Fold change vs veh, CCT5 / RFU, WDR92 / Fold change vs veh, WDR92 / RFU, CUX1 / Fold change vs veh, CUX1 / RFU, TTC7A / Fold change vs veh, TTC7A / RFU, TMEM135 / Fold change vs veh, TMEM135 / RFU, DEPTOR / Fold change vs veh, DEPTOR / RFU, CPM / Fold change vs veh, CPM / RFU, DNAJB6 / Fold change vs veh, DNAJB6 / RFU, CACNA2D3 / Fold change vs veh, CACNA2D3 / RFU, DTX4 / Fold change vs veh, DTX4 / RFU, TFCP2 / Fold change vs veh, TFCP2 / RFU, GMCL1 /// GMCL1P1 / Fold change vs veh, GMCL1 /// GMCL1P1 / RFU, AEBP2 / Fold change vs veh, AEBP2 / RFU, SNHG1 /// SNORD22 /// SNORD25 /// SNORD26 /// SNORD27 /// SNORD28 /// SNORD29 /// SNORD31 / Fold change vs veh, SNHG1 /// SNORD22 /// SNORD25 /// SNORD26 /// SNORD27 /// SNORD28 /// SNORD29 /// SNORD31 / Fold change (Aza/veh), C12orf56 (ProbeSet 11735607_a_at) / Fold change (ACY-1035/veh), C12orf56 (ProbeSet 11735607_a_at) / Fold change (Aza/veh), FGFR1OP (ProbeSet 11751329_s_at) / Fold change (ACY-1035/veh), FGFR1OP (ProbeSet 11751329_s_at) / Fold change (Aza/veh), VPS36 (ProbeSet 11739960_a_at) / Fold change (ACY-1035/veh), VPS36 (ProbeSet 11739960_a_at) / RFU SYPL1 (11715823_x_at) / Fold change /veh SYPL1 (11715823_x_at) / RFU IGFBP7 (11715501_s_at) / Fold change /veh IGFBP7 (11715501_s_at) / RFU REEP3 (11722064_at) / Fold change /veh REEP3 (11722064_at) / RFU IGLL1 (11728026_x_at) / Fold change /veh IGLL1 (11728026_x_at): dose or concentration left out as unconfirmed
Details: MV-4-11 cells, 48 hours

Structure (SMILES): Nc1ncn([C@@H]2O[C@H](CO)[C@@H](O)[C@H]2O)c(=O)n1 [azacitidine]
- Fold change /veh DDX43 (11728927_at): 1.23
